Six molecules from patent US7094930B2, “Pharmaceutically acceptable salts of sertraline and pharmaceutical compositions thereof” (Pfizer Inc, priority 2003, dated 2006) can be followed below.

In general, aqueous solubility refers to the concentration that dissolves in the medium under given conditions. Higher therefore signals a readily soluble substance.

What all share (type): physicochemical
One series is described as follows: pH in aqueous solution. The conditions noted are these: (native) pH of the aqueous solution of the salt.
Series [1] can be described thus: hygroscopicity at relative humidity.
The nature of the next series: aqueous solubility.

Structures can show the parent of a compound that is named as a salt.

For the molecule `CN[C@H]1CC[C@@H](c2ccc(Cl)c(Cl)c2)c2ccccc21` [sertraline benzoic acid salt, Benzoic Acid Salt of Sertraline], in the series “pH in aqueous solution”, the “pH in aqueous solution” value was determined as 5.2. The hygroscopicity entry in series [1] (at 100% relative humidity) is reported as “approximately 0.1%”. In addition, in the series “aqueous solubility”, the aqueous solubility came out at 520 µg/mL.

For the molecule `CN[C@H]1CC[C@@H](c2ccc(Cl)c(Cl)c2)c2ccccc21` [sertraline benzenesulfonic acid salt, Benzenesulfonic Acid Salt of Sertraline], the “pH in aqueous solution” value in the series “pH in aqueous solution” is 4.6. For the same molecule, in series [1] (at 90% relative humidity), the hygroscopicity entry is “approximately 0.3%”. In “aqueous solubility”, this molecule registered an aqueous solubility of 900 µg/mL.

Regarding `CN[C@H]1CC[C@@H](c2ccc(Cl)c(Cl)c2)c2ccccc21` [sertraline fumaric acid salt, Fumaric Acid Salt of Sertraline], the “pH in aqueous solution” value in the series “pH in aqueous solution” is 3.4. For the same molecule, the hygroscopicity entry in series [1] (at 90% relative humidity) is given as “approximately 0.3%”. In addition, the aqueous solubility in the series “aqueous solubility” came out at 2800 µg/mL.

Take `CN[C@H]1CC[C@@H](c2ccc(Cl)c(Cl)c2)c2ccccc21` [sertraline (−)-camphor-10-sulfonic acid salt] [(−)-Camphor-10-sulfonic Acid Salt of Sertraline]: the “pH in aqueous solution” value in the series “pH in aqueous solution” amounted to 4.6. Moreover, the hygroscopicity entry in series [1] (at 100% relative humidity) is given as “approximately 0.4%”. This molecule also returned an aqueous solubility in “aqueous solubility” of 1500 µg/mL.

In the case of `CN[C@H]1CC[C@@H](c2ccc(Cl)c(Cl)c2)c2ccccc21` [sertraline L-tartaric acid salt, L-Tartaric Acid Salt of Sertraline], in the series “pH in aqueous solution”, the “pH in aqueous solution” value came to 3.0. For the same molecule, the hygroscopicity result in series [1] (at 100% relative humidity) is on record as “less than 0.1%”. The aqueous solubility in the series “aqueous solubility” is 4800 µg/mL.

Take `CN[C@H]1CC[C@@H](c2ccc(Cl)c(Cl)c2)c2ccccc21` [sertraline p-toluenesulfonic acid salt, P-Toluenesulfonic Acid Salt of Sertraline]: the “pH in aqueous solution” value in “pH in aqueous solution” is listed as 4.1. For the same molecule, the hygroscopicity result in series [1] (at 90% relative humidity) is listed as “approximately 0.1%”. In “aqueous solubility”, this molecule returned an aqueous solubility of 400 µg/mL.
